# Patent publication EP2582674B1 (Cymabay Therapeutics, Inc., priority 2010, dated 2011)
# Biological target: T1, human GPR120 (Homo sapiens, UniProt Q5NUL3)
# T1 construct: host or cells: HEK293 cells co-expressing Gqi5
# T1 sequence (Q5NUL3 1-361): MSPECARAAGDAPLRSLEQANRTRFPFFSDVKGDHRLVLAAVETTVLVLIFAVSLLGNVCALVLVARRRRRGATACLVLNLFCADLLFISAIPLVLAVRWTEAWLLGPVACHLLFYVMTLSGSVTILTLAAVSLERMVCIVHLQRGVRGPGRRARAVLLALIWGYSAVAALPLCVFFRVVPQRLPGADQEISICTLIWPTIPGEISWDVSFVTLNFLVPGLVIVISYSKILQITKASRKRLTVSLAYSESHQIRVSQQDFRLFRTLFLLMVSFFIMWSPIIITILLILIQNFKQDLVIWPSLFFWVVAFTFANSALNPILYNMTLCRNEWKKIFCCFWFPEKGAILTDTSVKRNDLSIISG
# Test: Intracellular Ca2+ assay in human GPR120 stable cell line (FLIPR Calcium 4 dye, Flexstation)
# Format: cell-based
# Conditions: % activity at 2.5 µM compared to the maximal activity of the compound of Example 25 at 2.5 µM (=100%); HEK293 cells co-expressing Gqi5
row,% Activity (Ex. 25 Reference Compound) [%],SMILES
1,95.58,"CC1(C)Cc2cc(F)cc(COc3c(F)cc(CC4CC4C(=O)O)cc3F)c2O1 (single isomer, unassigned) [Example 184A, 2-(3,5-difluoro-4-((5-fluoro-2,2-dimethyl-2,3-dihydrobenzofuran-7-yl)methoxy)benzyl)cyclopropanecarboxylic acid]"

# Same assay, conditions: HEK293, % activity at 2.5 µM compared to the maximal activity of the compound of Example 25 at 2.5 µM (=100%); HEK293 cells co-expressing Gqi5; read-out: % Activity (Ex. 25 Reference Compound)
row,activity at 2.5 µM [%],SMILES
1,146,"Cc1cc(CCC(=O)O)c(C)c(C)c1OCc1cc(F)cc2c1OC(C)(C)C2 [Example 254, 3-(4-((5-fluoro-2,2-dimethyl-2,3-dihydrobenzofuran-7-yl)methoxy)-2,3,5-trimethylphenyl) propanoic acid]"
2,155,"[2H]C([2H])(C(=O)O)C([2H])([2H])c1ccc(OCc2cc(F)cc3c2OC(C)(C)C3)c(F)c1CC [Example 243, 3-(2-ethyl-3-fluoro-4-((5-fluoro-2,2-dimethyl-2,3-dihydrobenzofuran-7-yl)methoxy)phenyl)-2,2,3,3-tetradeuteriopropanoic acid]"
3,90.6,"C[C@H](Cc1ccc(OCc2cc(Cl)cc3c2OC(C)(C)C3)c(C(F)(F)F)c1)C(=O)O [Example 143, (R)-3-(4-((5-chloro-2,2-dimethyl-2,3-dihydrobenzofuran-7-yl)methoxy)-3-(trifluoromethyl)phenyl)-2-methylpropanoic acid]"
4,110,"CC(Cc1ccc(OCc2cc(F)cc3c2OC(C)(C)C3)cc1)C(=O)NO (stereo not drawn) [Example 264, 3-(4-((5-fluoro-2,2-dimethyl-2,3-dihydrobenzofuran-7-yl)methoxy)phenyl)-N-hydroxy-2-methylpropanamide]"
5,72.4,"CC(Cc1cc(F)c(OCc2cc(Cl)cc3c2OC(C)C3(C)C)c(F)c1)C(=O)O (stereo not drawn) [Example 109, 3-(4-((5-chloro-2,3,3-trimethyl-2,3-dihydrobenzofuran-7-yl)methoxy)-3,5-difluorophenyl)-2-methylpropanoic acid]"
6,144,"COc1cc(COc2ccc(CC(C)C(=O)O)cc2)c2c(c1)CC(C)(C)O2 (stereo not drawn) [Example 108, 3-(4-((5-methoxy-2,2-dimethyl-2,3-dihydrobenzofuran-7-yl)methoxy)phenyl)-2-methylpropanoic acid]"
7,5.23,"COc1cccc(-c2cc(COc3ccc(CC(C)C(=O)O)cc3)c3c(c2)CC(C)(C)O3)c1 (stereo not drawn) [Example 86, 3-(4-((5-(3-methoxyphenyl)-2,2-dimethyl-2,3-dihydrobenzofuran-7-yl)methoxy)phenyl)-2-methylpropanoic acid]"
8,24,"CC(Cc1ccc(OCc2cc(-c3ccc(Cl)cc3)cc3c2OC(C)(C)C3)cc1)C(=O)O (stereo not drawn) [Example 82, 3-(4-((5-(4-chlorophenyl)-2,2-dimethyl-2,3-dihydrobenzofuran-7-yl)methoxy)phenyl)-2-methylpropanoic acid]"
9,148,"COc1cc(OCc2cc(Cl)cc3c2OC2(CCCC2)C3)ccc1CCC(=O)O [Example 194, 3-(4-((5-chloro-3H-spiro[benzofuran-2,1'-cyclopentane]-7-yl)methoxy)-2-methoxyphenyl)propanoic acid]"
10,118,"CC1(C)Cc2cc(Cl)cc(COc3ccc(SCC(=O)O)cc3)c2O1 [Example 59, 2-((4-((5-chloro-2,2-dimethyl-2,3-dihydrobenzofuran-7-yl)methoxy)phenyl)thio)-acetic acid]"
11,121,"CC(Cc1ccc(OCc2ccc(F)c3c2CC(C)(C)O3)cc1)C(=O)O (stereo not drawn) [Example 91, 3-(4-((7-fluoro-2,2-dimethyl-2,3-dihydrobenzofuran-4-yl)methoxy)phenyl)-2-methylpropanoic acid]"
12,119,"CC(Cc1ccc(OCc2cc(Cl)cc3c2OC(C)(C)C3)c(CN(C)C)c1)C(=O)O (stereo not drawn) [Example 88, 3-(4-((5-chloro-2,2-dimethyl-2,3-dihydrobenzofuran-7-yl)methoxy)-3-((dimethylamino)methyl)phenyl)-2-methylpropanoic acid]"
13,105,"CC1(C)Cc2cc(Cl)cc(COc3ccc4c(c3)CC[C@@H]4CC(=O)O)c2O1 [Example 179, (R)-2-(5-((5-chloro-2,2-dimethyl-2,3-dihydrobenzofuran-7-yl)methoxy)-2,3-dihydro-1H-inden-1-yl)acetic acid]"
14,141,"[2H]C1([2H])c2cc(Cl)cc(COc3ccc(CC(C)C(=O)O)cc3F)c2OC1(C)C (stereo not drawn) [Example 146, 3-(4-((3,3-dideuterio-5-chloro-2,2-dimethyl-2,3-dihydrobenzofuran-7-yl)methoxy)-3-fluorophenyl)-2-methylpropanoic acid]"
15,111,"Cc1cc(OCc2cc(F)cc3c2OC(C)(C)C3)c(C)cc1CCC(=O)O [Example 206, 3-(4-((5-fluoro-2,2-dimethyl-2,3-dihydrobenzofuran-7-yl)methoxy)-2,5-dimethylphenyl)propanoic acid]"
16,119,"[2H]C([2H])(Oc1ccc(CCC(=O)O)c(CC)c1F)c1cc(F)cc2c1OC(C)(C)C2 [Example 228, 3-(4-(dideuterio(5-fluoro-2,2-dimethyl-2,3-dihydrobenzofuran-7-yl)methoxy)-3-fluoro-2-ethylphenyl)propanoic acid]"
17,5.98,"CC1(C)Cc2cc(F)cc(COc3ccc4c(CC(=O)O)cc(=O)oc4c3)c2O1 [Example 263, 2-(7-((5-fluoro-2,2-dimethyl-2,3-dihydrobenzofuran-7-yl)methoxy)-2-oxo-2H-chromen-4-yl)acetic acid]"
18,165,"CC(Cc1ccc(OCc2cc(Cl)cc3c2OC2(CCCC2)C3)cc1)C(=O)O (stereo not drawn) [Example 159, 3-(4-((5-chloro-3H-spiro[benzofuran-2,1'-cyclopentane]-7-yl)methoxy)phenyl)-2-methylpropanoic acid]"
19,102,"CC1(C)Cc2c(ccc(F)c2COc2c(F)cc(C3CC3C(=O)O)cc2F)O1 (stereo not drawn) [Example 99, 2-(3,5-difluoro-4-((5-fluoro-2,2-dimethyl-2,3-dihydrobenzofuran-4-yl)methoxy)phenyl)cyclopropanecarboxylic acid]"
20,159,"COc1cc(CCC(=O)O)ccc1OCc1cc(F)cc2c1OC(C)(C)C2 [Example 173, 3-(4-((5-fluoro-2,2-dimethyl-2,3-dihydrobenzofuran-7-yl)methoxy)-3-methoxyphenyl)propanoic acid]"

# Same assay, conditions: HEK293, % activity at 5 µM compared to the maximal activity of GW9508 at 6.7 µM (=100%); HEK293 cells co-expressing Gqi5; read-out: %Activity (GW9508 Reference Compound)
row,activity at 5 µM [%],SMILES
1,143,"CC(Cc1ccc(OCc2ccc(C(F)(F)F)c3c2OC(C)(C)C3)c(F)c1)C(=O)O (stereo not drawn) [Example 33, 3-(4-((2,2-dimethyl-4-(trifluoromethyl)-2,3-dihydrobenzofuran-7-yl)methoxy)-3-fluorophenyl)-2-methylpropanoic acid]"
2,126,"CC1(C)Cc2cc(F)cc(COc3c(F)cc(C4CC4C(=O)O)cc3F)c2O1 (stereo not drawn) [Example 19, 2-(3,5-difluoro-4-((5-fluoro-2,2-dimethyl-2,3-dihydrobenzofuran-7-yl)methoxy)phenyl)cyclopropanecarboxylic acid]"
3,72.2,"CC(Cc1ccc(OCc2cccc3c2CC(C)(C)O3)cc1)C(=O)O (stereo not drawn) [Example 17, 3-(4-((2,2-dimethyl-2,3-dihydrobenzofuran-4-yl)methoxy)phenyl)-2-methylpropanoic acid]"
4,100,"CC1(C)Cc2cccc(COc3c(F)cc(C4CC4C(=O)O)cc3F)c2O1 (stereo not drawn) [Example 24, 2-(4-((2,2-dimethyl-2,3-dihydrobenzofuran-7-yl)methoxy)-3,5-difluorophenyl) cyclopropanecarboxylic acid]"
5,143,"CC(Cc1cc(F)c(OCc2ccc(C(F)(F)F)c3c2OC(C)(C)C3)c(F)c1)C(=O)O (stereo not drawn) [Example 32, 3-(4-((2,2-dimethyl-4-(trifluoromethyl)-2,3-dihydrobenzofuran-7-yl)methoxy)-3,5-difluorophenyl)-2-methylpropanoic acid]"
6,95.3,"CC(Cc1cc(F)c(OCc2cccc3c2OC(C)C3C)c(F)c1)C(=O)O (stereo not drawn) [Example 40, 3-(4-((2,3-dimethyl-2,3-dihydrobenzofuran-7-yl)methoxy)-3,5-difluorophenyl)-2-methylpropanoic acid]"
7,109,"COc1cc(CC(C)C(=O)O)ccc1OCc1cc(Cl)cc2c1OC(C)(C)C2 (stereo not drawn) [Example 15, 3-(4-((5-chloro-2,2-dimethyl-2,3-dihydrobenzofuran-7-yl)methoxy)-3-methoxyphenyl)-2-methylpropanoic acid]"
8,124,"Cc1cc(CC(C)C(=O)O)ccc1OCc1cc(Cl)cc2c1OC(C)(C)C2 (stereo not drawn) [Example 11, 3-(4-((5-chloro-2,2-dimethyl-2,3-dihydrobenzofuran-7-yl)methoxy)-3-methylphenyl)-2-methylpropanoic acid]"

# Same assay, conditions: eight concentrations from 0.00001 to 20 µM; changes (Max-Min) of fluorescence intensity
row,EC50 [µM],SMILES
1,≤ 1,"CC(Cc1ccc(OCc2cc(Br)cc3c2OC(C)(C)C3)cc1)C(=O)O (stereo not drawn) [Example 81, 3-(4-((5-bromo-2,2-dimethyl-2,3-dihydrobenzofuran-7-yl)methoxy)phenyl)-2-methylpropanoic acid]"
2,1 to 10,"CC(Cc1ccc(OCc2cc(-c3ccc(Cl)cc3)cc3c2OC(C)(C)C3)cc1)C(=O)O (stereo not drawn) [Example 82, 3-(4-((5-(4-chlorophenyl)-2,2-dimethyl-2,3-dihydrobenzofuran-7-yl)methoxy)phenyl)-2-methylpropanoic acid]"
3,> 10,"CC(Cc1ccc(OCc2c(F)c(F)cc3c2OC(C)(C)C3)cc1)C(=O)O (stereo not drawn) [Example 43, 3-(4-((5,6-difluoro-2,2-dimethyl-2,3-dihydrobenzofuran-7-yl)methoxy)phenyl)-2-methylpropanoic acid]"
4,1 to 10,"COc1cc(CCC(=O)O)ccc1OCc1cc(F)cc2c1OC(C)(C)C2 [Example 173, 3-(4-((5-fluoro-2,2-dimethyl-2,3-dihydrobenzofuran-7-yl)methoxy)-3-methoxyphenyl)propanoic acid]"
